Test results as given in the NIST ThermoML archive (doi:10.1021/je700174h).

Assays:
[1] = 323.15 K; Liquid; mass and volume balance equations
[2] = excess molar enthalpy (molar enthalpy of mixing); xn = mol fraction of the nth substance listed; details: 323.15 K, Liquid, Flow calorimetry

COC [dimethyl ether]
Details | vapor or sublimation pressure
[1] | 1144.2 kPa [middle of 6 runs]

COC [dimethyl ether] + c1ccccc1
[2]
Details | excess molar enthalpy [kcal/mol]
x1 = 0.0637 | -0.00798
x1 = 0.1256 | -0.0153
x1 = 0.1857 | -0.0226
x1 = 0.2442 | -0.0287
x1 = 0.3011 | -0.0337
x1 = 0.3565 | -0.0382
x1 = 0.4104 | -0.0421
x1 = 0.4628 | -0.0449
x1 = 0.514 | -0.0468
x1 = 0.5638 | -0.0478
x1 = 0.6124 | -0.0478
x1 = 0.6597 | -0.0471
x1 = 0.7059 | -0.0452
x1 = 0.751 | -0.0428
x1 = 0.795 | -0.0385
x1 = 0.8379 | -0.0337
x1 = 0.8799 | -0.0275
x1 = 0.9208 | -0.0196
x1 = 0.9609 | -0.0104

C=CCCCCCCCC [1-decene] + COC
[2]
Details | excess molar enthalpy [kcal/mol]
x2 = 0.1265 | 0.0311
x2 = 0.2342 | 0.0555
x2 = 0.3269 | 0.0716
x2 = 0.4076 | 0.0824
x2 = 0.4784 | 0.0877
x2 = 0.5411 | 0.0904
x2 = 0.5971 | 0.0902
x2 = 0.6472 | 0.0877
x2 = 0.6924 | 0.0838
x2 = 0.7335 | 0.0787
x2 = 0.7708 | 0.072
x2 = 0.805 | 0.065
x2 = 0.8363 | 0.0576
x2 = 0.8652 | 0.0495
x2 = 0.892 | 0.0415
x2 = 0.9167 | 0.0332
x2 = 0.9397 | 0.0247
x2 = 0.9612 | 0.0163
x2 = 0.9812 | 0.00806

C=CCCCCCC [oct-1-ene] + COC
[2]
Details | excess molar enthalpy [kcal/mol]
x2 = 0.1071 | 0.0249
x2 = 0.2021 | 0.0447
x2 = 0.2868 | 0.0593
x2 = 0.363 | 0.0695
x2 = 0.4317 | 0.0758
x2 = 0.4941 | 0.0792
x2 = 0.551 | 0.0801
x2 = 0.6031 | 0.0793
x2 = 0.6509 | 0.077
x2 = 0.695 | 0.0734
x2 = 0.7358 | 0.0678
x2 = 0.7737 | 0.0622
x2 = 0.8089 | 0.0556
x2 = 0.8417 | 0.0486
x2 = 0.8724 | 0.0416
x2 = 0.9011 | 0.0334
x2 = 0.9281 | 0.0253
x2 = 0.9535 | 0.017
x2 = 0.9774 | 0.00842

CCCCCCCCCCCC [dodecane]
Details | vapor or sublimation pressure [kPa]
[1] | 0.2

COC [dimethyl ether] + Cc1ccccc1
[2]
Details | excess molar enthalpy [kcal/mol]
x1 = 0.0753 | -0.0117
x1 = 0.1467 | -0.0217
x1 = 0.2145 | -0.0306
x1 = 0.279 | -0.0378
x1 = 0.3403 | -0.043
x1 = 0.3988 | -0.0476
x1 = 0.4545 | -0.0509
x1 = 0.5078 | -0.0533
x1 = 0.5587 | -0.054
x1 = 0.6075 | -0.0545
x1 = 0.6541 | -0.0535
x1 = 0.6989 | -0.0516
x1 = 0.7419 | -0.0492
x1 = 0.7831 | -0.0454
x1 = 0.8228 | -0.0406
x1 = 0.8609 | -0.0351
x1 = 0.8976 | -0.0282
x1 = 0.933 | -0.0199
x1 = 0.9671 | -0.0106

C=CCCCCCC [oct-1-ene]
Details | vapor or sublimation pressure [kPa]
[1] | 8.3

c1ccccc1 [benzene]
Details | vapor or sublimation pressure [kPa]
[1] | 35.47

COC [dimethyl ether] + O
[2]
Details | excess molar enthalpy [kcal/mol]
x1 = 0.0137 | -0.0315
x1 = 0.0363 | -0.0758
x1 = 0.0808 | -0.13
x1 = 0.1366 | -0.154
x1 = 0.2087 | -0.131
x1 = 0.3054 | -0.0954
x1 = 0.4418 | -0.0449
x1 = 0.5543 | -0.00351
x1 = 0.6487 | 0.0315
x1 = 0.7036 | 0.0516
x1 = 0.7649 | 0.0736
x1 = 0.8337 | 0.0987
x1 = 0.8713 | 0.0956
x1 = 0.9114 | 0.0832
x1 = 0.9542 | 0.0581

COC [dimethyl ether] + CCCCCCCCCC
[2]
Details | excess molar enthalpy [kcal/mol]
x1 = 0.1299 | 0.0567
x1 = 0.2396 | 0.0977
x1 = 0.3336 | 0.126
x1 = 0.4149 | 0.143
x1 = 0.486 | 0.152
x1 = 0.5487 | 0.156
x1 = 0.6043 | 0.156
x1 = 0.6541 | 0.151
x1 = 0.6989 | 0.145
x1 = 0.7393 | 0.137
x1 = 0.7761 | 0.126
x1 = 0.8097 | 0.114
x1 = 0.8405 | 0.102
x1 = 0.8687 | 0.0887
x1 = 0.8948 | 0.0747
x1 = 0.919 | 0.0603
x1 = 0.9414 | 0.0454
x1 = 0.9623 | 0.0305
x1 = 0.9818 | 0.015

Cc1ccccc1 [toluene]
Details | vapor or sublimation pressure [kPa]
[1] | 12.22

O [water]
Details | vapor or sublimation pressure [kPa]
[1] | 12.29

CCCCCCCCCC [decane]
Details | vapor or sublimation pressure [kPa]
[1] | 1.18

COC [dimethyl ether] + CCCCCCCCCCCC
[2]
Details | excess molar enthalpy [kcal/mol]
x1 = 0.1484 | 0.067
x1 = 0.269 | 0.111
x1 = 0.3688 | 0.14
x1 = 0.4529 | 0.157
x1 = 0.5247 | 0.164
x1 = 0.5866 | 0.167
x1 = 0.6407 | 0.164
x1 = 0.6882 | 0.158
x1 = 0.7304 | 0.149
x1 = 0.7681 | 0.139
x1 = 0.8019 | 0.127
x1 = 0.8324 | 0.115
x1 = 0.8601 | 0.101
x1 = 0.8854 | 0.0873
x1 = 0.9085 | 0.0732
x1 = 0.9298 | 0.059
x1 = 0.9494 | 0.0441
x1 = 0.9675 | 0.0295
x1 = 0.9844 | 0.0145
